Reference: PubChem BioAssay AID248 (DTP/NCI, 2004)
Where “and” joins values, the source holds several entries; their conditions need not be identical. Equal values may be shown once. Toxic doses and inconclusive results are not listed. Cut-off read from the data, not from the text of the source: active = T/C of 150% or more; inactive = T/C below 125%.

System: L1210 leukemia ip in BDF1 mice, survival T/C
Assay: NCI In Vivo Anticancer Drug Screen. Data for tumor model L1210 Leukemia (intraperitoneal) in B6D2F1 (BDF1) mice
Settings: endpoint: mean survival time, higher = longer survival
In short: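 Transplantable tumor model; survival measured in treated vs vehicle control mice. Value = treated/control.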

[1] = dose: 50.0 mg/kg/injection, schedule: Q01DX009 (ip), vehicle: saline with Tween-80
[2] = dose: 100.0 mg/kg/injection, schedule: Q04DX003 (ip), vehicle: saline with Tween-80
[3] = dose: 200.0 mg/kg/injection, schedule: Q04DX003 (ip), vehicle: saline with Tween-80
[4] = dose: 400.0 mg/kg/injection, schedule: Q04DX003 (ip), vehicle: saline with Tween-80
[5] = dose: 100.0 mg/kg/injection, schedule: Q01DX009 (ip), vehicle: saline with Tween-80
[6] = dose: 400.0 mg/kg/injection, schedule: Q01DX009 (ip), vehicle: saline with Tween-80
[7] = dose: 200.0 mg/kg/injection, schedule: Q01DX009 (ip), vehicle: saline with Tween-80
[8] = dose: 100.0 mg/kg/injection, schedule: Q01DX001 (ip), vehicle: saline
[9] = dose: 200.0 mg/kg/injection, schedule: Q01DX001 (ip), vehicle: saline
[10] = dose: 400.0 mg/kg/injection, schedule: Q01DX001 (ip), vehicle: saline
[11] = dose: 100.0 mg/kg/injection, schedule: Q04DX003 (ip), vehicle: Klucel (hydroxypropylcellulose) (HPC)
[12] = dose: 200.0 mg/kg/injection, schedule: Q04DX003 (ip), vehicle: Klucel (hydroxypropylcellulose) (HPC)
[13] = dose: 400.0 mg/kg/injection, schedule: Q04DX003 (ip), vehicle: Klucel (hydroxypropylcellulose) (HPC)

Measured: T/C

NC1CCCCCCC1O (stereo unspecified)
inactive: dose: 5.0 mg/kg/injection, schedule: Q01DX009 (ip), vehicle: saline with Tween-80 105 % of control | dose: 10.0 mg/kg/injection, schedule: Q01DX009 (ip), vehicle: saline with Tween-80 94 % of control | dose: 20.0 mg/kg/injection, schedule: Q01DX009 (ip), vehicle: saline with Tween-80 100 % of control

Nc1ccc(Nc2ccccc2)c(N)c1
inactive: dose: 50.0 mg/kg/injection, schedule: Q01DX009 (ip), vehicle: saline 98 % of control | dose: 75.0 mg/kg/injection, schedule: Q01DX009 (ip), vehicle: saline 102 % of control | dose: 75.0 mg/kg/injection, schedule: Q04DX003 (ip), vehicle: saline 103 % of control | dose: 150.0 mg/kg/injection, schedule: Q04DX003 (ip), vehicle: saline 96 % of control

CC(=O)OCC1OC(N=C=S)C(OC(C)=O)C(OC(C)=O)C1OC(C)=O (stereo unspecified)
inactive: dose: 12.5 mg/kg/injection, schedule: Q01DX009 (ip), vehicle: saline with Tween-80 97 % of control | dose: 25.0 mg/kg/injection, schedule: Q01DX009 (ip), vehicle: saline with Tween-80 100 % of control | [1] 93 % of control

CCOc1nc(C)cc(C(=O)O)c1C#N
inactive: dose: 75.0 mg/kg/injection, schedule: Q01DX001 (ip), vehicle: other 95 % of control | dose: 150.0 mg/kg/injection, schedule: Q01DX001 (ip), vehicle: other 100 % of control | dose: 300.0 mg/kg/injection, schedule: Q01DX001 (ip), vehicle: other 103 % of control

CC(=O)c1ccc2c(c1)-c1ccccc1C(=O)C2=O
inactive: [2] 89 % of control | [3] 94 % of control | [4] 91 % of control

CCC(=O)C(CCN(C)C)c1ccccn1 (stereo unspecified)
inactive: dose: 20.0 mg/kg/injection, schedule: Q01DX Z (ip), vehicle: saline 103 % of control | dose: 30.0 mg/kg/injection, schedule: Q01DX Z (ip), vehicle: saline 91 % of control | dose: 44.0 mg/kg/injection, schedule: Q01DX Z (ip), vehicle: saline 91 % of control | dose: 66.0 mg/kg/injection, schedule: Q01DX Z (ip), vehicle: saline 93 % of control

CCC(=O)O[C@H]1CC[C@H]2[C@@H]3[C@@H](C)CC4=CC(=O)CC[C@]4(C)[C@H]3CC[C@]12C
inactive: [5] 93 % of control | [2] 90 % of control | [3] 90 % of control | [6] 91 % of control | [4] 87 % of control

C[C@@H]1CC2=CC(=O)CC[C@]2(C)[C@H]2CC[C@]3(C)[C@@H](O)CC[C@H]3[C@H]12
inactive: [5] 92 % of control | [7] 112 % of control | [6] 100 % of control

CC[C@@]1(O)C[C@H](OC2CC(N(C)C)C(OC3CC(O)C(O[C@@H]4O[C@@H](C)C(=O)C=C4N)C(C)O3)C(C)O2)c2c(cc3c(c2O)C(=O)c2c(O)ccc(O)c2C3=O)[C@H]1C(=O)OC (stereo partly specified)
inactive: dose: 0.05 mg/kg/injection, schedule: Q01DX009 (ip), vehicle: suspension in saline 117 % of control | dose: 0.05 mg/kg/injection, schedule: Q09DX009 (ip), vehicle: saline 104 % of control | dose: 0.1 mg/kg/injection, schedule: Q05DX005 (ip), vehicle: saline 106 % of control | dose: 0.1 mg/kg/injection, schedule: Q09DX009 (ip), vehicle: saline 106 % of control | dose: 0.2 mg/kg/injection, schedule: Q01DX009 (ip), vehicle: suspension in saline 111 % of control | dose: 0.2 mg/kg/injection, schedule: Q03DX003 (ip), vehicle: saline 118 % of control | dose: 0.2 mg/kg/injection, schedule: Q05DX005 (ip), vehicle: saline 122 % of control | dose: 0.2 mg/kg/injection, schedule: Q09DX009 (ip), vehicle: saline 111 % of control | dose: 0.4 mg/kg/injection, schedule: Q01DX001 (ip), vehicle: saline 111 % of control | dose: 0.4 mg/kg/injection, schedule: Q01DX009 (ip), vehicle: suspension in saline 100 % of control | dose: 0.4 mg/kg/injection, schedule: Q03DX003 (ip), vehicle: saline 108 % of control | dose: 0.8 mg/kg/injection, schedule: Q01DX001 (ip), vehicle: saline 118 % of control | dose: 0.8 mg/kg/injection, schedule: Q01DX009 (ip), vehicle: suspension in saline 100 % of control | dose: 1.6 mg/kg/injection, schedule: Q01DX001 (ip), vehicle: saline 113 % of control | dose: 1.6 mg/kg/injection, schedule: Q05DX005 (ip), vehicle: saline 115 % of control | dose: 1.6 mg/kg/injection, schedule: Q09DX009 (ip), vehicle: saline 104 % of control | dose: 3.2 mg/kg/injection, schedule: Q03DX003 (ip), vehicle: saline 101 % of control | dose: 3.2 mg/kg/injection, schedule: Q05DX005 (ip), vehicle: saline 118 % of control | dose: 6.4 mg/kg/injection, schedule: Q03DX003 (ip), vehicle: saline 122 % of control

CCCCCCCCCCCCCCCCC/C=N/Nc1nnc(N/N=C/CCCCCCCCCCCCCCCCC)c2ccccc12
inactive: dose: 50.0 mg/kg/injection, schedule: Q01DX001 (ip), vehicle: saline 95 % of control | [8] 103 % of control | [9] 101 % of control | [10] 101 % of control

O=C1OC(C(Cl)(Cl)Cl)OC1C(Cl)(Cl)Cl (stereo unspecified)
inactive: dose: 25.0 mg/kg/injection, schedule: Q01DX001 (ip), vehicle: saline with Tween-80 98 % of control | dose: 50.0 mg/kg/injection, schedule: Q01DX001 (ip), vehicle: saline with Tween-80 96 % of control | dose: 100.0 mg/kg/injection, schedule: Q01DX001 (ip), vehicle: saline with Tween-80 93 % of control

O=C(O)[C@H]1CCCC[C@H]1C(=O)O
inactive: dose: 50.0 mg/kg/injection, schedule: Q04DX003 (ip), vehicle: Klucel (hydroxypropylcellulose) (HPC) 98 % of control | [11] 95 % of control | [12] 103 % of control and 106 % of control | [13] 100 % of control

O=C(Nc1cccc(C(F)(F)F)c1)OCCOc1ccc(Br)cc1
inactive: dose: 100.0 mg/kg/injection, schedule: Q01DX009 (ip), vehicle: Klucel (hydroxypropylcellulose) (HPC) 98 % of control | dose: 200.0 mg/kg/injection, schedule: Q01DX009 (ip), vehicle: Klucel (hydroxypropylcellulose) (HPC) 96 % of control | dose: 400.0 mg/kg/injection, schedule: Q01DX009 (ip), vehicle: Klucel (hydroxypropylcellulose) (HPC) 92 % of control

CN(C=O)c1cccc(C(=O)O)c1
inactive: dose: 100.0 mg/kg/injection, schedule: Q01DX001 (ip), vehicle: Klucel (hydroxypropylcellulose) (HPC) 96 % of control | [11] 103 % of control | dose: 200.0 mg/kg/injection, schedule: Q01DX001 (ip), vehicle: Klucel (hydroxypropylcellulose) (HPC) 94 % of control | [12] 103 % of control | dose: 400.0 mg/kg/injection, schedule: Q01DX001 (ip), vehicle: Klucel (hydroxypropylcellulose) (HPC) 91 % of control | [13] 97 % of control

O=C(O)c1c(I)c(I)c(I)c(I)c1C(=O)c1ccccc1
inactive: [1] 103 % of control | [5] 115 % of control | [7] 112 % of control

c1ccc(COCC[P+](c2ccccc2)(c2ccccc2)c2ccccc2)cc1
inactive: dose: 5.0 mg/kg/injection, schedule: Q01DX001 (ip), vehicle: saline 94 % of control | dose: 20.0 mg/kg/injection, schedule: Q01DX001 (ip), vehicle: saline 87 % of control

CCCCCCCC[Si](CCCCCCCC)CCCCCCCC
inactive: dose: 100.0 mg/kg/injection, schedule: Q04DX003 (ip), vehicle: acetone 95 % of control | dose: 200.0 mg/kg/injection, schedule: Q04DX003 (ip), vehicle: acetone 91 % of control | dose: 400.0 mg/kg/injection, schedule: Q04DX003 (ip), vehicle: acetone 98 % of control

CC(C)c1sc([S-])n[n+]1-c1ccccc1
inactive: [8] 104 % of control | dose: 100.0 mg/kg/injection, schedule: Q04DX003 (ip), vehicle: saline 101 % of control | [9] 101 % of control | dose: 200.0 mg/kg/injection, schedule: Q04DX003 (ip), vehicle: saline 95 % of control | [10] 91 % of control | dose: 400.0 mg/kg/injection, schedule: Q04DX003 (ip), vehicle: saline 101 % of control
